Values of other authors as cited in US20250064731A1, “A LIQUID PHARMACEUTICAL FORMULATION OF CLONIDINE HYDROCHLORIDE” (NOVUMGEN LIMITED, priority 2022, published 2025).

Conditions: after oral administration

## Clc1cccc(Cl)c1N=C1NCCN1 [clonidine, N-(2,6-dichlorophenyl)-4,5-dihydro-1H-imidazol-2-amine]
  absorption from the gastrointestinal tract: almost completely absorbed
  liver metabolism: rapid liver metabolism
